Tests used:
Assay in all cases: biochemical
Set-up in all cases: Ubiquigent DUB profiler selectivity panel, remaining enzyme activity as % of control
Conditions in all cases: read-out: % of control remaining
USP30 = biological target: T1, USP30 (Homo sapiens, UniProt Q70CQ3)
T1 sequence (Q70CQ3 1-517): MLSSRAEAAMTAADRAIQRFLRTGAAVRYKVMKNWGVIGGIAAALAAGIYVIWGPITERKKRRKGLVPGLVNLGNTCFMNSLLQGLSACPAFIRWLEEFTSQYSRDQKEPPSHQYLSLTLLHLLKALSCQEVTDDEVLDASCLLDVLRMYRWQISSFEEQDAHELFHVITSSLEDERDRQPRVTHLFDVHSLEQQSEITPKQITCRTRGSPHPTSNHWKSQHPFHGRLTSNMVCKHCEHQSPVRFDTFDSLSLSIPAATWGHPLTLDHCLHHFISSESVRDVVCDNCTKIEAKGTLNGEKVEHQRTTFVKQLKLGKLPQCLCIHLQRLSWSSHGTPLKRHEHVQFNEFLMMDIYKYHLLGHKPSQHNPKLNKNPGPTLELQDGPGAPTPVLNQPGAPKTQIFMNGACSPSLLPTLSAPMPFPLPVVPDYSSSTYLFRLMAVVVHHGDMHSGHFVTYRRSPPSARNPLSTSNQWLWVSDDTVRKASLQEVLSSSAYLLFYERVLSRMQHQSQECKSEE
Summary of the method: (§1)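 In YFP-PRKN-overexpressing hTERT-RPE1 cells, 1 h antimycin A plus oligomycin A (1 μM each) with CMPD-39, then Western blot of TOMM20 ubiquitylation. Target engagement: 2 h compound, then 10 min HA-Ub-PA at 37°C, read as USP30 shift. DUB panel (>40 enzymes) screened at 1-100 μM.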

USP8 = biological target: T2, USP8 (Homo sapiens, UniProt P40818)
T2 sequence (P40818 1-1118): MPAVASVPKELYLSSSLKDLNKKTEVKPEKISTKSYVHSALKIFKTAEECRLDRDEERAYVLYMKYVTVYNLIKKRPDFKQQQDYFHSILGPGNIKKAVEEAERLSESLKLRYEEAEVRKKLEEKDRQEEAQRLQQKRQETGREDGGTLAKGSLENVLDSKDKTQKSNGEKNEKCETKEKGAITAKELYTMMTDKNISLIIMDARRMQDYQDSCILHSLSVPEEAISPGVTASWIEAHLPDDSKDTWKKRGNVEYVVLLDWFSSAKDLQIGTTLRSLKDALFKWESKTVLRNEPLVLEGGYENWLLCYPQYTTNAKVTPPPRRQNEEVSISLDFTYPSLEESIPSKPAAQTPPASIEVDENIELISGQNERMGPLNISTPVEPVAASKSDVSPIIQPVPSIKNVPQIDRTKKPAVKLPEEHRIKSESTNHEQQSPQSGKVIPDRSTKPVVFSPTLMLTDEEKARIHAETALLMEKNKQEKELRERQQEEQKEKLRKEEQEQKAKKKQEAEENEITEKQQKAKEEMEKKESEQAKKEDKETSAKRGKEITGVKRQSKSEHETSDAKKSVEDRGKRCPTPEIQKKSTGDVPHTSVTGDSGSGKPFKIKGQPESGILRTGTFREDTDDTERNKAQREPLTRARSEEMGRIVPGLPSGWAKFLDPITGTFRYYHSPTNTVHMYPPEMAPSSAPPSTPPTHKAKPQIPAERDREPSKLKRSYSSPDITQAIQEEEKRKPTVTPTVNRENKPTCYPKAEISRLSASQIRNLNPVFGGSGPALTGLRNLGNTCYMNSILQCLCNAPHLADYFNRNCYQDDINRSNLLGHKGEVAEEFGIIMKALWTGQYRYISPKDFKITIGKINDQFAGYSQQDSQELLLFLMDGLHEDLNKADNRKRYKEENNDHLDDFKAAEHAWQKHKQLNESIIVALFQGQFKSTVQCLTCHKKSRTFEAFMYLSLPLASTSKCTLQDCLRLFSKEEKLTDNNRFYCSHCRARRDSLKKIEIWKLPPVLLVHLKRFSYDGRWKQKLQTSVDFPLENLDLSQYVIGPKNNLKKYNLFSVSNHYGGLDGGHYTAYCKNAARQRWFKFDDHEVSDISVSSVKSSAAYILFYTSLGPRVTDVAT
Summary of the method: as §1

[1] = biological target: T3, USP14 (+Proteasome-VS@Kd) (Homo sapiens, UniProt P54578)
T3 construct: +Proteasome-VS@Kd
Summary of the method: as §1

T3 sequence (P54578 whole entry): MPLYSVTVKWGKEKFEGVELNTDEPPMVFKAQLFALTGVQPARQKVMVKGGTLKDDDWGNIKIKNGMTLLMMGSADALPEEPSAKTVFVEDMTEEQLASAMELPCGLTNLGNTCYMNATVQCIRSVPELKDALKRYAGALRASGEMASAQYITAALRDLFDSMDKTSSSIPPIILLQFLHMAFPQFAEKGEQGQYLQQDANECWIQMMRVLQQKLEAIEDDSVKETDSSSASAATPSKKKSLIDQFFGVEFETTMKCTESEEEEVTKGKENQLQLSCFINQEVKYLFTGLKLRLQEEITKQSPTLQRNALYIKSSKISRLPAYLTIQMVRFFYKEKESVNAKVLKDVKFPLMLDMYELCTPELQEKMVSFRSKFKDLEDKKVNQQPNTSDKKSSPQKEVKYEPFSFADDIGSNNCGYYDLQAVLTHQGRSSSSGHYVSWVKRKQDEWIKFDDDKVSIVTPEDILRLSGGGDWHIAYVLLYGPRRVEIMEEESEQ

remaining activity at 1 µM (USP30): 0.756%
remaining activity at 10 µM (USP30): 0.5%
remaining activity at 100 µM (USP30): 3.27%
remaining activity at 1 µM (USP8): 105%
remaining activity at 10 µM (USP8): 100%
remaining activity at 100 µM (USP8): 102%
remaining activity at 1 µM [1]: 107%
remaining activity at 10 µM [1]: 100%
remaining activity at 100 µM [1]: 96.1%
Structure (SMILES): CC(C)(C)NS(=O)(=O)c1ccc(NC(=O)[C@H](Cc2ccccc2)NC(=O)c2ccc(F)cc2)cc1 [compound 39, CMPD-39]
